Results published in ChEMBL document CHEMBL1909576, “Continued exploration of biphenylsulfonamide scaffold as a platform for aggrecanase-1 inhibition” (Bioorg Med Chem Lett, 2011).
Values after ≈ are worked out from the molar mass of the structure shown.

Tests used:
[1] = biological target: T1, A disintegrin and metalloproteinase with thrombospondin motifs 4 (Homo sapiens, UniProt O75173); test: Inhibition of aggrecanase-1
T1 sequence (O75173 whole entry): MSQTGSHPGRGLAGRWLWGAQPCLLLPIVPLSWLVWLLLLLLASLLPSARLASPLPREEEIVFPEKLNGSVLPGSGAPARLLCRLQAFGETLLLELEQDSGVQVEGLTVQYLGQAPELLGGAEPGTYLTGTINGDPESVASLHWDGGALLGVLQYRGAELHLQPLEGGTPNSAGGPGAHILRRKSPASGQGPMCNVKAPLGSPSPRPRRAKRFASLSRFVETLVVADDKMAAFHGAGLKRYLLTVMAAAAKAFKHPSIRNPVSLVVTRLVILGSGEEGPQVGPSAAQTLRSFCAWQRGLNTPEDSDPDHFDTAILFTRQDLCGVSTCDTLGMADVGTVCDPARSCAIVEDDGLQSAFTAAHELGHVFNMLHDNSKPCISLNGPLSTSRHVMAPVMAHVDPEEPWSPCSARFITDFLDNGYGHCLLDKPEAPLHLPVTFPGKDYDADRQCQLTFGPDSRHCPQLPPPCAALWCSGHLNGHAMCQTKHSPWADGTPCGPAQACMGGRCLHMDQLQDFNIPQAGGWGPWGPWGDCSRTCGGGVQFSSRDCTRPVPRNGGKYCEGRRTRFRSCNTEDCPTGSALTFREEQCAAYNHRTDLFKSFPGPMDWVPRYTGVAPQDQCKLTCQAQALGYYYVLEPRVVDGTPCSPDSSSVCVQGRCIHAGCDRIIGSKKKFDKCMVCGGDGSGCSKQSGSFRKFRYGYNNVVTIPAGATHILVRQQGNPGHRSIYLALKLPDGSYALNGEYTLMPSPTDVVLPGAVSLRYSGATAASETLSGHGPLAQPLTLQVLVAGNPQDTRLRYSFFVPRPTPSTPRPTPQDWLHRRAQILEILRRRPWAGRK

Collagenase 3 = Collagenase 3 (Homo sapiens, UniProt P45452); test: Inhibition of MMP13
[2] = Solubility of the compound at pH 7.4; assay type: physicochemical; settings: buffer
[3] = Clearance in Sprague-Dawley rat; assay type: ADME, organism-based; settings: in vivo
[4] = Half life in Sprague-Dawley rat; assay type: ADME, organism-based; settings: in vivo
[5] = Bioavailability in Sprague-Dawley rat; assay type: ADME, organism-based; settings: in vivo
[6] = Permeability across human Caco2 cells; assay type: ADME, cell-based; settings: Caco-2, read-out: permeability

Compound | IC50 [1] [nM] | IC50 (Collagenase 3) [nM] | solubility [2] [µg/mL] | clearance [3] [mL/min/kg] | half-life [4] [h] | bioavailability [5] [%] | Papp [6] [×10⁻⁶ cm/s]
CC(C)[C@@H](NS(=O)(=O)c1ccc(-c2ccc(OCc3ccccc3C#N)cc2)cc1)C(=O)O | 15000 | 4.6 | > 100 | 1.07 | 6 | 23 | 
CC(C)[C@@H](NS(=O)(=O)c1ccc(-c2ccc(OCc3cccc(C#N)c3)cc2)cc1)C(=O)O | 800 | 0.1 | 53 (≈ 114 µM) |  | 7 |  | 0.8
